Biological target: T1, human Werner helicase (WRN-BV08, Uniprot Q14191, amino acids 517-1235 with L1074F point mutation) (Homo sapiens, UniProt Q14191, L1074F)
T1 construct: Uniprot Q14191, amino acids 517-1235 with L1074F point mutation; TEV-cleavable 8×His (C, cleaved yes); made in house; host or cells: Sf9 insect cells (baculovirus)
Experiment: WRN (BV08) ADP-Glo Assay
Assay type: biochemical
Settings: 0.15 nM WRN, 5 μM ATP, 0.1 nM DNA duplex, 15 min preincubation, 60 min at 25° C., pH 7.5, 1% DMSO; read-out: ADP-Glo_hWRN_IC50
In short: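 Percent inhibition was normalised to DMSO (max) and 20 μM NSC-617145 (min) controls from ADP-Glo luminescence, and IC50 values came from a four-parameter fit. The reaction ran 60 min at 25 °C with 0.15 nM WRN, 5 μM ATP and 0.1 nM duplex DNA.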

T1 sequence (Q14191 with tags, fused parts or gaps L1074F limits assumed): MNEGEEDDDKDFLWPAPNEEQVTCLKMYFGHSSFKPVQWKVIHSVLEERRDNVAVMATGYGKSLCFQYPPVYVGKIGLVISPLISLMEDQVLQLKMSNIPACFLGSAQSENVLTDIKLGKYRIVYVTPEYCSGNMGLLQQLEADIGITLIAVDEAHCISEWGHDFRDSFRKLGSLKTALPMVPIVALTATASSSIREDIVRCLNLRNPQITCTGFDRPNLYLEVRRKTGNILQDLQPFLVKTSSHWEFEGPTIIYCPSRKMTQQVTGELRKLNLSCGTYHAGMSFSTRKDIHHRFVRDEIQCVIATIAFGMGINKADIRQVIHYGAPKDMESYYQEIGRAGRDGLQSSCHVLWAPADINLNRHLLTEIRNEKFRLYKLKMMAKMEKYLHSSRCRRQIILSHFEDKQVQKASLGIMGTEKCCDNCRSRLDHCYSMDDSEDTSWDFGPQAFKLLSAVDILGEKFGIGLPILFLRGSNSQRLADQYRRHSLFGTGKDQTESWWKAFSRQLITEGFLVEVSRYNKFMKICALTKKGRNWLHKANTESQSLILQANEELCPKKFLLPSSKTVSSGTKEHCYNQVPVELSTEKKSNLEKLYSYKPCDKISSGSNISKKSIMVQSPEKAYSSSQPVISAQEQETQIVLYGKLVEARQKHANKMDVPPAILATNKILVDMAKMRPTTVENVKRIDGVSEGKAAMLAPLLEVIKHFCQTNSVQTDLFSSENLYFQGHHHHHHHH

IC50	SMILES
< 0.5 µM	O=C(Cc1ccc(S(F)(F)(F)(F)F)cc1)N(Cc1nc(C2CC2)cs1)C1C=CS(=O)(=O)C1 (centres unmarked) [I-41, N-[(4-cyclopropyl-1,3-thiazol-2-yl)methyl]-N-(1,1-dioxo-2,3-dihydro-1lambda6-thiophen-3-yl)-2-[4-(pentafluoro-lambda6-sulfanyl)phenyl]acetamide]
> 50 µM	O=C(Cc1ccc2ncccc2c1)N(Cc1ccncc1)C1C=CS(=O)(=O)C1 (centres unmarked) [I-514, N-(1,1-dioxo-2,3-dihydro-1lambda6-thiophen-3-yl)-N-[(pyridin-4-yl)methyl]-2-(quinolin-6-yl)acetamide]
> 50 µM	O=C([C@@H]1CC[C@@H](c2ccccc2)C1)N(Cc1ccncc1)C1C=CS(=O)(=O)C1 (mixture of isomers) [I-655, rac-(1R,3R)-N-(1,1-dioxo-2,3-dihydro-1lambda6-thiophen-3-yl)-3-phenyl-N-[(pyridin-4-yl)methyl]cyclopentane-1-carboxamide]
> 50 µM	O=C(C1CCc2ccc(Br)cc21)N(Cc1ccncc1)C1C=CS(=O)(=O)C1 (centres unmarked) [I-658, 6-bromo-N-(1,1-dioxo-2,3-dihydro-1lambda6-thiophen-3-yl)-N-[(pyridin-4-yl)methyl]-2,3-dihydro-1H-indene-1-carboxamide]
5 to 10 µM	O=C(Cc1ccc(C(F)(F)F)c(F)c1)N(Cc1ccncc1)C1C=CS(=O)(=O)C1 (centres unmarked) [I-236, N-(1,1-dioxo-2,3-dihydro-1lambda6-thiophen-3-yl)-2-[3-fluoro-4-(trifluoromethyl)phenyl]-N-[(pyridin-4-yl)methyl]acetamide]
> 50 µM	O=C(Cc1nc(C2CCCC2)cs1)N(Cc1ccncc1)C1C=CS(=O)(=O)C1 (centres unmarked) [I-440, 2-(4-cyclopentyl-1,3-thiazol-2-yl)-N-(1,1-dioxo-2,3-dihydro-1lambda6-thiophen-3-yl)-N-[(pyridin-4-yl)methyl]acetamide]
> 50 µM	O=C(Cc1cnn(C2CC2)c1)N(Cc1ccncc1)C1C=CS(=O)(=O)C1 (centres unmarked) [I-582, 2-(1-cyclopropyl-1H-pyrazol-4-yl)-N-(1,1-dioxo-2,3-dihydro-1lambda6-thiophen-3-yl)-N-[(pyridin-4-yl)methyl]acetamide]
10 to 50 µM	O=C(Cc1ccc2c(c1)CCCC2)N(Cc1ccncc1)C1C=CS(=O)(=O)C1 (centres unmarked) [I-643, N-(1,1-dioxo-2,3-dihydro-1lambda6-thiophen-3-yl)-N-[(pyridin-4-yl)methyl]-2-(5,6,7,8-tetrahydronaphthalen-2-yl)acetamide]
> 50 µM	O=C(CN1CCC(c2ccccc2)CC1)N(Cc1ccncc1)C1C=CS(=O)(=O)C1 (centres unmarked) [I-571, N-(1,1-dioxo-2,3-dihydro-1lambda6-thiophen-3-yl)-2-(4-phenylpiperidin-1-yl)-N-[(pyridin-4-yl)methyl]acetamide]

The remaining lines, values behind:

SMILES	IC50
CC(C)(O)c1cc(CN(C(=O)Cn2cc3cc(S(F)(F)(F)(F)F)ccc3n2)[C@@H]2C=CS(=O)(=O)C2)ccn1 [I-7, (R)—N-(1,1-dioxido-2,3-dihydrothiophen-3-yl)-N-((2-(2-hydroxypropan-2-yl)pyridin-4-yl)methyl)-2-(5-(pentafluoro-λ^6-sulfaneyl)-2H-indazol-2-yl)acetamide]	< 0.5 µM
O=C(CCn1ccc2ccccc21)N(Cc1ccncc1)C1C=CS(=O)(=O)C1 (centres unmarked) [I-502, N-(1,1-dioxo-2,3-dihydro-1lambda6-thiophen-3-yl)-3-(1H-indol-1-yl)-N-[(pyridin-4-yl)methyl]propanamide]	> 50 µM
CC(C(=O)N(Cc1ccnc(C(C)(C)O)c1)C1C=CS(=O)(=O)C1)n1cc(-c2ccc(C(F)(F)F)cc2)cn1 (single isomer, unassigned) [I-775, (2R*)-N-[(3R**)-1,1-dioxo-2,3-dihydro-1lambda6-thiophen-3-yl]-N-{[2-(2-hydroxypropan-2-yl)pyridin-4-yl]methyl}-2-{4-[4-(trifluoromethyl)phenyl]-1H-pyrazol-1-yl}propanamide]	0.5 to 5 µM
Cc1cccn1-c1ccc(CC(=O)N(Cc2ccnc(C3(O)CC3)c2)C2C=CS(=O)(=O)C2)c(F)c1 (centres unmarked) [I-90, N-(1,1-dioxo-2,3-dihydro-1lambda6-thiophen-3-yl)-2-[2-fluoro-4-(2-methyl-1H-pyrrol-1-yl)phenyl]-N-{[2-(1-hydroxycyclopropyl)pyridin-4-yl]methyl}acetamide]	0.5 to 5 µM
COc1cc(CN(C(=O)Cc2ccc(-n3cccc3C)cc2F)[C@@H]2C=CS(=O)(=O)C2)ccn1 [I-56, N-[(3R)-1,1-dioxo-2,3-dihydro-1lambda6-thiophen-3-yl]-2-[2-fluoro-4-(2-methyl-1H-pyrrol-1-yl)phenyl]-N-[(2-methoxypyridin-4-yl)methyl]acetamide]	< 0.5 µM
O=C(Cn1nc(-c2ccccc2)ccc1=O)N(Cc1ccncc1)C1C=CS(=O)(=O)C1 (centres unmarked) [I-326, N-(1,1-dioxo-2,3-dihydro-1lambda6-thiophen-3-yl)-2-(6-oxo-3-phenyl-1,6-dihydropyridazin-1-yl)-N-[(pyridin-4-yl)methyl]acetamide]	10 to 50 µM
CC(C)(O)c1cc(CN(C(=O)C2Cc3cc(-c4ccc(F)cc4)ccc3O2)C2C=CS(=O)(=O)C2)ccn1 (centres unmarked) [I-298, N-(1,1-dioxo-2,3-dihydro-1lambda6-thiophen-3-yl)-5-(4-fluorophenyl)-N-{[2-(2-hydroxypropan-2-yl)pyridin-4-yl]methyl}-2,3-dihydro-1-benzofuran-2-carboxamide]	10 to 50 µM
CC(C)(O)c1cc(CN(C(=O)Cn2cc(-c3ccc(F)cc3)cn2)C2C=CS(=O)(=O)C2)ccn1 (centres unmarked) [I-42, N-(1,1-dioxo-2,3-dihydro-1lambda6-thiophen-3-yl)-2-[4-(4-fluorophenyl)-1H-pyrazol-1-yl]-N-{[2-(2-hydroxypropan-2-yl)pyridin-4-yl]methyl}acetamide]	< 0.5 µM
CC(C)(O)c1cc(CN(C(=O)Cn2cc(-c3cc(F)c(F)cc3F)cn2)C2C=CS(=O)(=O)C2)ccn1 (single isomer, unassigned) [I-763]	< 0.5 µM
CC(O)(c1cc(CN(C(=O)Cn2cc(-c3cc(F)c(F)c(F)c3)cn2)C2C=CS(=O)(=O)C2)ccn1)C(F)F (centres unmarked) [I-827, N-{[2-(1,1-difluoro-2-hydroxypropan-2-yl)pyridin-4-yl]methyl}-N-(1,1-dioxo-2,3-dihydro-1lambda6-thiophen-3-yl)-2-[4-(3,4,5-trifluorophenyl)-1H-pyrazol-1-yl]acetamide]	< 0.5 µM
O=C(Cc1cccc(-n2cccc2)c1)N(Cc1ccncc1)C1C=CS(=O)(=O)C1 (centres unmarked) [I-528, N-(1,1-dioxo-2,3-dihydro-1lambda6-thiophen-3-yl)-N-[(pyridin-4-yl)methyl]-2-[3-(1H-pyrrol-1-yl)phenyl]acetamide]	> 50 µM
COc1cc(CN(C(=O)C(OCCC#N)c2ccc(-c3ccc(F)c(F)c3)cc2F)[C@@H]2C=CS(=O)(=O)C2)ccn1 (stereo partly drawn) [I-744, 2-(2-cyanoethoxy)-N-[(3R)-1,1-dioxo-2,3-dihydro-1lambda6-thiophen-3-yl]-N-[(2-methoxypyridin-4-yl)methyl]-2-{3,3′,4′-trifluoro-[1,1′-biphenyl]-4-yl}acetamide]	0.5 to 5 µM
O=C(Cc1ccc(-n2cccc2)cc1)N(Cc1ccc(Br)cc1)C1C=CS(=O)(=O)C1 (centres unmarked) [I-163, N-[(4-bromophenyl)methyl]-N-(1,1-dioxo-2,3-dihydro-1lambda6-thiophen-3-yl)-2-[4-(1H-pyrrol-1-yl)phenyl]acetamide]	0.5 to 5 µM
NC(=O)c1cccc(CN(C(=O)Cc2ccc(-n3cccc3)cc2)C2C=CS(=O)(=O)C2)c1 (centres unmarked) [I-318, 3-{[N-(1,1-dioxo-2,3-dihydro-1lambda6-thiophen-3-yl)-2-[4-(1H-pyrrol-1-yl)phenyl]acetamido]methyl}benzamide]	10 to 50 µM
CC(C)(C)OC(=O)NC(C(=O)N(Cc1ccccc1)C1C=CS(=O)(=O)C1)c1ccc(-n2cccc2)cc1 (centres unmarked) [I-535, tert-butyl N-{[benzyl(1,1-dioxo-2,3-dihydro-1lambda6-thiophen-3-yl)carbamoyl][4-(1H-pyrrol-1-yl)phenyl]methyl}carbamate]	> 50 µM
COc1cc(CN(C(=O)C(c2ccc(-c3ccc(F)c(F)c3)cc2F)n2cc(C(F)F)cn2)[C@@H]2C=CS(=O)(=O)C2)ccn1 (single isomer, unassigned) [I-711, (2R*)-2-[4-(difluoromethyl)-1H-pyrazol-1-yl]-N-[(3R)-1,1-dioxo-2,3-dihydro-1lambda6-thiophen-3-yl]-N-[(2-methoxypyridin-4-yl)methyl]-2-{3,3′,4′-trifluoro-[1,1′-biphenyl]-4-yl}acetamide]	> 50 µM
Cc1nc(CN(C(=O)Cc2ccc(-n3cccc3)cc2)C2C=CS(=O)(=O)C2)cs1 (centres unmarked) [I-335, N-(1,1-dioxo-2,3-dihydro-1lambda6-thiophen-3-yl)-N-[(2-methyl-1,3-thiazol-4-yl)methyl]-2-[4-(1H-pyrrol-1-yl)phenyl]acetamide]	10 to 50 µM
COc1cc(CN(C(=O)Cc2ccc(C3CC(F)C3)cc2F)[C@@H]2C=CS(=O)(=O)C2)ccn1 (stereo partly drawn) [I-591, N-[(3R)-1,1-dioxo-2,3-dihydro-1lambda6-thiophen-3-yl]-2-[2-fluoro-4-(3-fluorocyclobutyl)phenyl]-N-[(2-methoxypyridin-4-yl)methyl]acetamide]	0.5 to 5 µM
O=C(Cc1ccc(-c2ccc(F)cc2)cc1)N(Cc1ccccc1)C1C=C(CO)S(=O)(=O)C1 (centres unmarked) [I-640, N-benzyl-2-{4′-fluoro-[1,1′-biphenyl]-4-yl}-N-[5-(hydroxymethyl)-1,1-dioxo-2,3-dihydro-1lambda6-thiophen-3-yl]acetamide]	> 50 µM
COc1cc(CN(C(=O)C(c2ccc(-c3ccc(F)c(F)c3)cc2F)n2cc(OC(F)F)cn2)[C@@H]2C=CS(=O)(=O)C2)ccn1 (single isomer, unassigned) [I-685, (2R*)-2-[4-(difluoromethoxy)-1H-pyrazol-1-yl]-N-[(3R)-1,1-dioxo-2,3-dihydro-1lambda6-thiophen-3-yl]-N-[(2-methoxypyridin-4-yl)methyl]-2-{3,3′,4′-trifluoro-[1,1′-biphenyl]-4-yl}acetamide]	< 0.5 µM

Source: patent US20260297070A1, “CYCLIC [COMPOUND LEFT OUT] WRN INHIBITORS” (Nimbus Wadjet, Inc., priority 2023, published 2026)
